The results in this text go back to patent US7094420B2, “Methods of using isomer enriched conjugated linoleic acid compositions” (Natural ASA, priority 1998, dated 2006).

The assay can be described thus: Mouse feeding trial of diets with different ratios and amounts of CLA isomers. It is filed as in vivo, ICR mice. The method, then:
Based on the results of Example 1, the Inventors believe that the t10,c12 isomer is an active isomer.
The trial was conducted with 84 ICR mice purchased from Harlan Sprague Dawley (Madison, Wis.). The diets were blended using the basal diet, sugar, corn oil and one or a blend of isomers of conjugated linoleic acid (expressed as percent of diet). Each treatment consisted of 2 pens of 3 mice. Mice had food and water ad libitum. Food consumption was monitored daily and mice were weighed every other day when bedding was changed. At three weeks of feeding the diet, mice were euthanized by CO2 and final body weights were taken. Mice were then necropsied and fat pads were weighed. Mice were also analyzed for total body fat. Mice were freeze dried and ground. Duplicate samples were analyzed by proximate analysis (ether extraction, ash, kjeldahl, and moisture).

For the molecule `CCCCCC/C=C/C=C\CCCCCCCC(=O)O` [c9,t11 CLA, c9,t11 octadecadienoic acid], the improvement in growth (mice fed only c9,t11 CLA, no t10,c12 present, linear) came to 16%. Further, the “growth, rate of gain, and feed conversion” value (mice receiving only c9,t11 CLA) was “increased growth, rate of gain, and feed conversion”.
`CCCCC/C=C\C=C\CCCCCCCCC(=O)O` [t10,c12 CLA, t10,c12 octadecadienoic acid]: the “body fat compared to control mice” value (mice fed only t10,c12 CLA vs control mice not receiving CLA) is “reduced body fat”. The reduction in growth (mice fed t10,c12 isomer only) came out at 10%.
